pIC50: −log10 of the molar value. Read-outs that look alike come from different tables or passages of the source.
Experiments:
[1] = tested on: non-synovial control cancer cell lines (293T, A549, G401); assay: Growth of non-synovial control cancer cell lines (crystal violet, colony imaging); format: cell-based; conditions: FIGS. 5, 6, 7
Description: (§1) Cells were seeded into 12-well plates and treated with DMSO, 1 μM BRD9 inhibitor, Compound 2 (also known as BI-7273, see Martin et al, J Med Chem. 59(10):4462-4475 (2016); see structure of Compound 2 below), or 1 μM BRD9 degrader, Compound 1.
(§2) The number of cells was optimized for each cell line. Growth medium and compounds were refreshed every 3-5 days. SYO1, Yamato, A549, 293T and HS-SY-II cells were fixed and stained at day 11. ASKA cells were fixed and stained at day 23. Staining was done by incubation with crystal violet solution (0.5 g Crystal Violet, 27 ml 37% Formaldehyde, 100 mL 10×PBS, 10 mL Methanol, 863 dH20 to 1 L) for 30 min followed by 3× washes with water and drying the plates for at least 24 h at room temperature. Subsequently plates were scanned on an Odyssey CLx Imaging system (FIG. 6).
(§3) Cells were seeded into 96-well ultra low cluster plate (Costar, #7007) in 200 μL complete media and treated at day 2 with DMSO, Staurosporin, or BRD9 degarder, Compound 1, at indicated doses (FIG. 7). Media and compounds were changed every 5 d and cell colonies were imaged at day 14.

[2] = tested on: SYO1 cells; assay: Cell cycle analysis (Click-iT Plus EdU Flow Cytometry Assay); format: cell-based; conditions: SYO1, 200 nM or 1 μM, 8 or 13 days, compared to DMSO and lenalidomide
Description: Procedure: SYO1 cells were treated for 8 or 13 days with DMSO, a BRD9 degrader (Compound 1) at 200 nM or 1 μM, or an E3 ligase binder (lenalidomide) at 200 nM. Compounds were refreshed every 5 days. Cell cycle analysis was performed using the Click-iT™ Plus EdU Flow Cytometry Assay (Invitrogen). The apoptosis assay was performed using the Annexin V-FITC Apoptosis Detection Kit (Sigma A9210). Assays were performed according to the manufacturer's protocol.

[3] = tested on: synovial sarcoma cell lines (SYO1, Yamato, HS-SY-II, ASKA); assay: Growth of synovial sarcoma cell lines (IncuCyte confluency, crystal violet, colony imaging); format: cell-based; conditions: 1 μM or indicated concentrations, FIGS. 5, 6, 7
Description: Cells were treated with DMSO or the BRD9 degrader, Compound 1, at indicated concentrations, and proliferation was monitored from day 7 to day 14 by measuring confluency overtime using an IncuCyte live cell analysis system (FIG. 5). Growth medium and compounds were refreshed every 3-4 days.
as §1, §2, §3

[4] = tested on: synovial sarcoma cell lines (SYO1, HS-SY-II, ASKA); assay: Growth of synovial sarcoma cell lines, 14-day crystal violet staining; format: cell-based; conditions: for inhibition of cell growth: SYO1, HS-SY-II, ASKA, treated daily, day 14, FIG. 8
Description: (§4) Procedure: Cells were seeded into 6-well or 12-well plates and were treated daily with a BRD9 degrader (Compound 1), a bromo-domain BRD9 binder (Compound 2), E3 ligase binder (lenalidomide), DMSO, or staurosporin (positive control for cell killing), at indicated concentrations. The number of cells was optimized for each cell line. Growth media was refreshed every 5 days. By day 14, medium was removed, cells were washed with PBS, and stained using 500 μL of 0.005% (w/v) crystal violet solution in 25% (v/v) methanol for at least 1 hour at room temperature. Subsequently plates were scanned on an Odyssey CLx Imaging system.

[5] = tested on: non-synovial control cancer cell lines (RD, HCT116, Calu6); assay: Growth of non-synovial control cancer cell lines, 14-day crystal violet staining; format: cell-based; conditions: treated daily, day 14, FIG. 9
Description: as §4

[6] = molecular target: 3×FLAG-NLuc-BRD9 (Nano luciferase-BRD9 fusion protein) in SYO-1 cells (Homo sapiens (Human), UniProt Q9H8M2); assay: SYO1 BRD9 NanoLuc degradation assay; format: cell-based; conditions: SYO-1 cells expressing 3×FLAG-NLuc-BRD9, 6 hours incubation, read-out: SYO1 BRD9-NanoLuc degradation IC50
3×FLAG-NLuc-BRD9 (Nano luciferase-BRD9 fusion protein) in SYO-1 cells, sequence (Q9H8M2 whole entry, the tested form may be a part): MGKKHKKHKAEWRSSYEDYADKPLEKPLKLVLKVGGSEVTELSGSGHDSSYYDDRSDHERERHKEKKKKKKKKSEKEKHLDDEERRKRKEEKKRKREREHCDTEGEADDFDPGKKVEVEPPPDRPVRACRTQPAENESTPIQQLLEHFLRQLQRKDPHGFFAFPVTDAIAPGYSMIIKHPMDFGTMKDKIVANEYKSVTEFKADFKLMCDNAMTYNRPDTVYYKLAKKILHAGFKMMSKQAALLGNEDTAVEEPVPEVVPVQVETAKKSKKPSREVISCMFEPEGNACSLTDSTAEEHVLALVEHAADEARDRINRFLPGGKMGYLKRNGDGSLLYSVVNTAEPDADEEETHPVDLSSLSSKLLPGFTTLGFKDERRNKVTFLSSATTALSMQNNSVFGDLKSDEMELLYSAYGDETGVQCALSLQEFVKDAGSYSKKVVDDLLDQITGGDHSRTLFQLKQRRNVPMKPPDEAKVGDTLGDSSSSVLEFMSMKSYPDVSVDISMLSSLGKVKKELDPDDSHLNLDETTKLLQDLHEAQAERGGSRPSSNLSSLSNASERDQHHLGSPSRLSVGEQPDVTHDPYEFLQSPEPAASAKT
Description: Procedure: A stable SYO-1 cell line expressing 3×FLAG-NLuc-BRD9 was generated. On day 0 cells were seeded in 30 μL media into each well of 384-well cell culture plates. The seeding density was 8000 cells/well. On day 1, cells were treated with 30 nL DMSO or 30 nL of 3-fold serially DMSO-diluted compounds (10 points in duplicates with 1 μM as final top dose). Subsequently plates were incubated for 6 hours in a standard tissue culture incubator and equilibrated at room temperature for 15 minutes. Nanoluciferase activity was measured by adding 15 μL of freshly prepared Nano-Glo Luciferase Assay Reagent (Promega N1130), shaking the plates for 10 minutes and reading the bioluminescence using an EnVision reader.
Results: The Inhibition % was calculated using the following formula: % Inhibition=100×(LuMHC−Lumsample)/(LumHC−LumLC). DMSO treated cells are employed as High Control (HC) and 1 μM of a known BRD9 degrader standard treated cells are employed as Low Control (LC).

[7] = molecular target: BRD9 bromodomain (Flag-BRD9 P133-K239) (Homo sapiens (Human), UniProt Q9H8M2); assay: BRD9 bromodomain TR-FRET competition binding assay; conditions: Table 4; 3 nM Flag-BRD9, 3.75 nM biotinylated ligand, 90 minutes at room temperature
BRD9 bromodomain (Flag-BRD9 P133-K239), sequence (Q9H8M2 133-239): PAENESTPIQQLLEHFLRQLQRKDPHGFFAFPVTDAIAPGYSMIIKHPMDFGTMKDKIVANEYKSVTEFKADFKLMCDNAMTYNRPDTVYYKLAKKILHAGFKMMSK
Description: Procedure: His-Flag-BRD9 (P133-K239; Swiss Prot Q9H8M2; SEQ ID NO:1 mgsshhhhhhenlyfq/gdykddddkgslevlfqg/[…] […]) was cloned, expressed, purified, and then treated with TEV protease. Cleaved His tag was removed by purification. The binding of a biotinylated small molecule ligand of BRD9 was assessed via the LANCE® TR-FRET platform (PerkinElmer), and the compounds were assayed for inhibitory activity against this interaction.
A mixture of biotinylated-ligand and SureLight™ Allophycocyanin-Streptavidin (APC-SA, PerkinElmer AD0201) in 50 mM HEPES (pH 7.4), 50 mM NaCl, 1 mM TCEP (pH 7), 0.01% (v/v) Tween-20, 0.01% (w/v) bovine serum albumin was added to a white 384-well PerkinElmer Proxiplate Plus plate. DMSO or 3-fold serially diluted compounds were then added to the Proxiplate followed by addition of Flag-BRD9. After a 10-minute incubation at room temperature, Eu-W1024 anti-FLAG (PerkinElmer, AD0273) was added. The final reaction mixture that contained 3.75 nM biotinylated ligand, 3 nM Flag-BRD9, 7.5 nM SureLight™ Allophycocyanin-Streptavidin, and 0.2 nM Eu-W1024 anti-FLAG was incubated at room temperature for 90 minutes.
Results: The plates were then read on a PerkinElmer Envision plate reader to determine the ratio of emission at 665 nm over 615 nm. […]

COc1cc(-c2cn(C)c(=O)c3cnccc23)cc(OC)c1CN(C)CC(=O)NCCOCCOCCNc1cccc2c1C(=O)N(C1CCC(=O)NC1=O)C2=O (stereo not drawn) [Compound 1]
inhibition of cell growth [1]: does not result in inhibition of the growth | numbers of cells in the S-phase of the cell cycle [2]: reduced numbers of cells in the S-phase of the cell cycle | inhibition of cell growth [3]: inhibition of the growth of the cells | inhibition of cell growth [4]: inhibition of the growth of the cells | growth inhibition compared among tested agents ([4]; all synovial cell lines, versus Compound 2 and lenalidomide): most significant growth inhibition in all synovial cell lines | inhibition of cell growth [5]: did not result in inhibition of the growth

COc1cc(-c2cn(C)c(=O)c3cnccc23)cc(OC)c1CN(C)C [Compound 2]
inhibition of cell growth [1]: does not result in inhibition of the growth | inhibition of cell growth [3]: inhibition of the growth of the cells | inhibition of cell growth [4]: inhibition of the growth of the cells | inhibition of cell growth [5]: did not result in inhibition of the growth

COc1cc(-c2cn(C)c(=O)c3cnccc23)cc(OC)c1CN1CC2(CCN(C(=O)CCOCCOc3cccc4c3C(=O)N(C3CCC(=O)NC3=O)C4=O)C2)C1 (stereo not drawn) [Compound D90]
DC50 ([6]; Table 5A): 10 to 100 nM | pIC50 [7]: > 8.00

COc1cc(-c2cn(C)c(=O)c3cnccc23)cc(OC)c1CN1CCC(COC2CCN(C(=O)CCOCCOc3cccc4c3C(=O)N(C3CCC(=O)NC3=O)C4=O)C2)CC1 (stereo not drawn) [Compound D94]
DC50 ([6]; Table 5A): 10 to 100 nM | pIC50 [7]: 7.00 to 8.00

COc1cc(-c2cn(C)c(=O)c3cnccc23)cc(OC)c1CN1CCC2(CC1)CCN(C(=O)CCC#Cc1ccc3c(c1)C(=O)N(C1CCC(=O)NC1=O)C3=O)C2 (stereo not drawn) [Compound D220]
DC50 ([6]; Table 5B): < 10 nM

COc1cc(-c2cn(C)c(=O)c3cnccc23)cc(OC)c1CN(C)CCCCNC1CC2(CCN(c3ccc4c(c3)C(=O)N(C3CNC(=O)CC3=O)C4=O)CC2)C1 (stereo not drawn) [Compound D247]
DC50 ([6]; Table 5B): < 10 nM

COc1cc(-c2cn(C)c(=O)c3cnccc23)cc(OC)c1CN(C)CCCCN1CC2(CCN(c3ccc4c(c3)C(=O)N(C3CCC(=O)NC3=O)C4=O)C2)C1 (stereo not drawn) [Compound D248]
DC50 ([6]; Table 5B): 10 to 100 nM

COc1cc(-c2cn(C)c(=O)c3cnccc23)cc(OC)c1CN1CC(n2cc(COCc3ccc4c(c3)C(=O)N(C3CCC(=O)NC3=O)C4=O)nn2)C1 (stereo not drawn) [Compound D298]
DC50 ([6]; Table 5B): < 10 nM

COc1cc(-c2cn(C)c(=O)c3[nH]ccc23)cc(OC)c1CN1CCC2(CC1)CN(c1ccc3c(c1)C(=O)N(C1CCC(=O)NC1=O)C3)C2 (stereo not drawn) [Compound D419]
DC50 ([6]; Table 5C): < 10 nM

COc1cc(-c2cn(C)c(=O)c3c[nH]nc23)cc(OC)c1CN1CCC2(CC1)CN(c1ccc3c(c1)C(=O)N(C1CCC(=O)NC1=O)C3)C2 (stereo not drawn) [Compound D420]
DC50 ([6]; Table 5C): < 10 nM

COc1cc(-c2cc(C(F)F)c(=O)n(C)c2)cc(OC)c1CN1CC(C#Cc2ccc3c(c2)C(=O)N(C2CCC(=O)NC2=O)C3)C1 (stereo not drawn) [Compound D439]
DC50 ([6]; Table 5C): < 10 nM

COc1cc(-c2cc(C)c(=O)n(C)c2)cc(OC)c1CN1CC(C)(C#Cc2ccc3c(c2)C(=O)N(C2CCC(=O)NC2=O)C3)C1 (stereo not drawn) [Compound D450]
DC50 ([6]; Table 5C): < 10 nM

COc1cc(-c2cc(C)c(=O)n(C)c2)cc(OC)c1CN1CC(C#Cc2ccc3c(c2)C(=O)N(C2CCC(=O)NC2=O)C3)C1C (stereo not drawn) [Compound D453]
DC50 ([6]; Table 5C): < 10 nM

C/C=C/Cn1cc(-c2ccc(CN3CCN(S(=O)(=O)c4ccc5c(c4)C(=O)N(C4CCC(=O)NC4=O)C5)CC3)c(Cl)c2)n2cncc2c1=O (stereo not drawn) [Compound D464]
DC50 ([6]; Table 5C): ≥ 1000 nM

Reference: US11560381B1, “Compounds and uses thereof” (Foghorn Therapeutics Inc., priority 2019, dated 2023)
